Where two headings read alike, the source gives them in different places.
Columns and labels:
[1] = tested on: RH7777 rat hepatoma cells; assay: SRB cytotoxicity assay, RH7777 control cell line; type: cell-based; settings: Rattus norvegicus, RH7777, control cell line, 96 h, read-out: IC50 RH7777
Description: (§1) For in vitro cytotoxicity screening, 1000 to 5000 cells were plated into each well of 96-well plates depending on growth rate, and exposed to different concentrations of a test compound for 96 h in three to five replicates. All the compounds were dissolved in dimethyl sulfoxide at 5 to 20 mM, and diluted to desired concentrations in complete culture medium. Cell numbers at the end of the drug treatment were measured by the SRB assay (Gududuru et al., “Synthesis and Biological Evaluation of Novel Cytotoxic Phospholipids for Prostate Cancer,” Bioorg. Med. Chem. Lett. 14:4919-4923 (2004); Rubinstein et at., “Comparison of in vitro Anticancer-Drug-Screening Data Generated with a Tetrazolium Assay Versus a Protein Assay Against a Diverse Panel of Human Tumor Cell Lines,” J. Naatl, Cancer Inst. 82:1113-1118 (1990), each of which is hereby incorporated by reference in its entirety). Briefly, the cells were fixed with 10% of trichloroacetic acid, stained with 0.4% SRB, and the absorbances at 540 nm was measured using a plate reader (DYNEX Technologies, Chantilly, Va.).
(§2) The antiproliferative activity of all the synthesized compounds was evaluated against five human prostate cancer cell lines and in RH7777 cells (negative control) using the sulforhodamine B (SRB) assay (see description in Example 5 above).
(§3) The chosen cell lines represent different basal levels of active AKT and LPL receptor expression (discussed later). Cells were exposed to a wide range of concentrations (0 to 100 μM) of the indicated compound for 96 h. Cell numbers at the end of treatment were measured using the sulforhodamine B (SRB) assay^5.
(§4) Cells were exposed to a wide range of concentrations (0 to 100 μM) of the particular compound for 96 h in 96 well plates. Cells were fixed with 10% trichloroacetic acid, washed five times with water. The plates were air dried overnight and fixed cells were stained with SRB solution. The cellular protein-bound SRB was measured at 540 nm using a plate reader. Cell numbers at the end of the treatment were measured.
as §4, with “96-well” for “96 well”, “calculated as a percentage of untreated control.” for “measured.”

[2] = tested on: DU-145 human prostate cancer cells; assay: SRB cytotoxicity assay, DU-145; type: cell-based; settings: Homo sapiens, DU-145, read-out: IC50 DU-145, 96 h
Description: as §1, §2, §3, §4
as §4, with “96-well” for “96 well”, “calculated as a percentage of untreated control.” for “measured.”

[3] = tested on: PC-3 human prostate cancer cells; assay: SRB cytotoxicity assay, PC-3; type: cell-based; settings: Homo sapiens, 96 h, read-out: IC50 PC-3
Description: as §1, §2, §3, §4
as §4, with “96-well” for “96 well”, “calculated as a percentage of untreated control.” for “measured.”

[4] = tested on: LNCaP human prostate cancer cells; assay: SRB cytotoxicity assay, LNCaP; type: cell-based; settings: Homo sapiens
Description: as §1, §2, §3, §4
as §4, with “96-well” for “96 well”, “calculated as a percentage of untreated control.” for “measured.”

[5] = tested on: PPC-1 human prostate cancer cells; assay: SRB cytotoxicity assay, PPC-1; type: cell-based; settings: Homo sapiens, PPC-1, 96 h, read-out: IC50 PPC-1
Description: (§5) Dr. Mitchell Steiner at University of Tennessee Health Science Center, kindly provided PPG-1 and TSU-PrI cells.
as §1, §2, §3, §4
as §4, with “96-well” for “96 well”, “calculated as a percentage of untreated control.” for “measured.”

[6] = tested on: TSU-Pr1 human prostate cancer cells; assay: SRB cytotoxicity assay, TSU-Pr1; type: cell-based; settings: Homo sapiens, TSU-Pr1, 96 h, read-out: IC50 TSU-Pr1
Description: as §5, §1, §2, §3, §4
as §4, with “96-well” for “96 well”, “calculated as a percentage of untreated control.” for “measured.”

[7] = tested on: human breast cancer cell line (MCF-7); assay: SRB cytotoxicity assay, MCF-7; type: cell-based; settings: Homo sapiens, MCF7; Table 8; breast cancer cell line; read-out: IC50 MCF-7
Description: as §1
In vitro cytotoxicity assay was performed by the same sulforhodamine B (SRB) assay (described above). The compounds shown in Table 8 below where tested for activity against the breast cancer and ovarian cancer cell lines.
as §3, §4

[8] = tested on: AKT phosphorylation (Pi-AKT) in LNCaP cells; assay: AKT phosphorylation by Western blot in LNCaP cells; type: cell-based, human
Description: As another assessment of cytotoxicity, AKT inhibition was measured. […] The immunoblots were visualized by enhanced, chemiluminescence, and changes of relative levels of phospho-AKT compared to total AKT by analog treatment were quantified by densitometric analysis.
Prostate cell line LNCaP cells were treated with 30 μM of the compound of Formula: [drawing 54]
for the indicated period and time. The active form of AKT (Pi-AKT) and the β-Actin were quantified by Western blot analysis. […]
Prostate cell line LNCaP cells were treated with 10 μM of the compound of Formula: [drawing 55]
for the indicated period and time. The active form of AKT (Pi-AKT) and AKT were quantified by Western blot analysis. […]
Prostate cell line LNCaP cells were treated with 10 μM of the compound of Formula [drawing 56]
for the indicated period and time. The active form of AKT (Pi-AKT), AKT and β-Actin were quantified by Western blot analysis. […]

[9] = LNCaP, Table 3, 96 h, read-out: IC50 LNCaP
[10] = LNCaP, Table 4, 96 h, read-out: IC50 LNCaP
[11] = stated in the text of the LNCaP AKT experiments (Examples 12-14), test of the IC50 not named, read-out: IC50

| Structure (SMILES) | melting point [°C] | IC50 ([1]; Table 3) [µM] | IC50 ([2]; Table 3) [µM] | IC50 ([3]; Table 3) [µM] | IC50 [4, 9] [µM] | IC50 ([5]; Table 3) [µM] | IC50 ([6]; Table 3) [µM] | IC50 [7] [µM] | IC50 ([1]; Table 4) [µM] | IC50 ([2]; Table 4) [µM] | IC50 ([3]; Table 4) [µM] | IC50 [4, 10] [µM] | IC50 ([5]; Table 4) [µM] | IC50 ([6]; Table 4) [µM] | IC50 [4, 11] [µM] | other results |
| --- | --- | --- | --- | --- | --- | --- | --- | --- | --- | --- | --- | --- | --- | --- | --- | --- |
| CCCCCCCCCCCCCCCCCCNC[C@H](CO)NC.Cl [drawing 55] |  |  |  |  |  |  |  |  |  |  |  |  |  |  | 3.3 | Time to almost complete inhibition of AKT phosphorylation ([8]; Example 13, 10 μM): ≤ 6 h; Relative abundance (Pi-AKT/AKT) ([8]; Example 13, 10 μM, 6 h, (−) control 1.00): 0.07; Relative abundance (Pi-AKT/AKT) ([8]; Example 13, 10 μM, 12 h): 0.31; Relative abundance (Pi-AKT/AKT) ([8]; Example 13, 10 μM, 24 h): 1.02; Relative abundance (Pi-AKT/AKT) ([8]; Example 13, 10 μM, 36 h): 0.63; Relative abundance (Pi-AKT/AKT) ([8]; Example 13, 10 μM, 48 h): 0.94 |
| CCCCCCCCCCCCCCCCCCNC(=O)[C@H](CO)NC(=O)OC(C)(C)C |  |  |  |  |  |  |  |  |  |  |  |  |  |  | 10.3 | Relative abundance (Pi-AKT/β-Actin) ([8]; 30 μM, 1 h, (−) control 1.00): 1.29; Relative abundance (Pi-AKT/β-Actin) ([8]; 30 μM, 2 h): 1.01; Relative abundance (Pi-AKT/β-Actin) ([8]; 30 μM, 6 h): 0.71; Relative abundance (Pi-AKT/β-Actin) ([8]; 30 μM, 12 h): 0.50; Relative abundance (Pi-AKT/β-Actin) ([8]; 30 μM, 24 h): 0.32; Relative abundance (Pi-AKT/β-Actin) ([8]; 30 μM, 48 h): <0.10; Relative abundance (Pi-AKT/β-Actin) ([8]; 30 μM, 72 h): <0.10; AKT phosphorylation inhibited to ([8]; 30 μM, by 12 hours of treatment): 50% |
| CCCCCCCCCCCCCCCCCCNC(=O)[C@@H]1CSC(c2c[nH]c3ccccc23)N1 (mixture of isomers) [Compound 10, (2RS, 4R)-2-(1H-Indol-3yl)-thiazolidine-4-carboxylic acid octadecylamide] | 125 | > 20 | 8.9 | 11.5 | 2.1 | 1.3 | 4.4 |  |  |  |  |  |  |  |  |  |

Now from value to compound, other results behind:

| melting point [°C] | Structure (SMILES) | IC50 ([1]; Table 3) [µM] | IC50 ([2]; Table 3) [µM] | IC50 ([3]; Table 3) [µM] | IC50 [4, 9] [µM] | IC50 ([5]; Table 3) [µM] | IC50 ([6]; Table 3) [µM] | IC50 [7] [µM] | IC50 ([1]; Table 4) [µM] | IC50 ([2]; Table 4) [µM] | IC50 ([3]; Table 4) [µM] | IC50 [4, 10] [µM] | IC50 ([5]; Table 4) [µM] | IC50 ([6]; Table 4) [µM] | IC50 [4, 11] [µM] | other results |
| --- | --- | --- | --- | --- | --- | --- | --- | --- | --- | --- | --- | --- | --- | --- | --- | --- |
| 80 | CCCCCCCCCCCCCCCCCCNC(=O)[C@@H]1CSC(Cc2ccccc2)N1 (mixture of isomers) [Compound 9, (2RS, 4R)-2-Benzylthiazolidine-4-carboxylic acid octadecylamide] | > 20 | 15.3 | 16.4 | 4.4 | 4 | 11.2 | 18.7 |  |  |  |  |  |  |  |  |
| 55 | CCCCCCCCCCCCCCCCCCNC(=O)[C@@H]1CSC(c2ccccc2)N1S(C)(=O)=O (mixture of isomers) [Compound 29, (2RS,4R)-3-Methanesulfonyl-2-phenylthiazolidine-4-carboxylic acid octadecylamide] |  |  |  |  |  |  | > 20 | > 20 | > 20 | > 20 | > 20 | > 20 | > 20 |  |  |
| 90 | CCCCCCCCCCCCCCCCCCNC(=O)[C@@H]1CSC(c2ccccc2)N1C(C)=O (mixture of isomers) [Compound 28, (2RS, 4R)-3-Acetyl-2-phenylthiazolidine-4-carboxylic acid octadecylamide] |  |  |  |  |  |  | 16.3 | > 20 | ~20 | ~20 | 16.1 | 12.6 | > 20 |  |  |
